Data from patent US10168342B2, “Lipid probes and uses thereof” (THE SCRIPPS RESEARCH INSTITUTE, priority 2015, dated 2019).

How the values were obtained:
Experiment in all cases: isoTOP-ABPP mapping of AEA-DA-modified peptides in Neuro2a cells
Format in all cases: cell-based
[1] = molecular target: T1, AEA-DA-modified peptides in Neuro2a cells (Mus musculus, UniProt Q61335); conditions: AEA-DA-modified peptide BCAP31 Q61335 73-80, SEQ ID NO 21; probe 100 μM, 12 replicates
T1 construct: endogenous in cells; host or cells: Neuro2a
T1 sequence (Q61335 whole entry): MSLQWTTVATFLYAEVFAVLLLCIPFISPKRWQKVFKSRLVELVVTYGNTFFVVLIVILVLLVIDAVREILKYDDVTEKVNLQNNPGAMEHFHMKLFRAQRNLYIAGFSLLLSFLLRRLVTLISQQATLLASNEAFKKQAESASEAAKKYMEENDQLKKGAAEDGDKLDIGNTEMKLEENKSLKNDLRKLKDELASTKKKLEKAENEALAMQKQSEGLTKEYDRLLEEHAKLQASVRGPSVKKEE

[2] = molecular target: T2, AEA-DA-modified peptides in Neuro2a cells (Mus musculus, UniProt Q78ZA7); conditions: AEA-DA-modified peptide NAP1L4 Q78ZA7 84-94, SEQ ID NO 66; probe 100 μM, 12 replicates
T2 construct: endogenous in cells; host or cells: Neuro2a

[3] = molecular target: T3, AEA-DA-modified peptides in Neuro2a cells (Mus musculus, UniProt Q91WD5); conditions: AEA-DA-modified peptide NDUFS2 Q91WD5 36-57, SEQ ID NO 67; probe 100 μM, 12 replicates
T3 construct: endogenous in cells; host or cells: Neuro2a
T3 sequence (Q91WD5 34-463): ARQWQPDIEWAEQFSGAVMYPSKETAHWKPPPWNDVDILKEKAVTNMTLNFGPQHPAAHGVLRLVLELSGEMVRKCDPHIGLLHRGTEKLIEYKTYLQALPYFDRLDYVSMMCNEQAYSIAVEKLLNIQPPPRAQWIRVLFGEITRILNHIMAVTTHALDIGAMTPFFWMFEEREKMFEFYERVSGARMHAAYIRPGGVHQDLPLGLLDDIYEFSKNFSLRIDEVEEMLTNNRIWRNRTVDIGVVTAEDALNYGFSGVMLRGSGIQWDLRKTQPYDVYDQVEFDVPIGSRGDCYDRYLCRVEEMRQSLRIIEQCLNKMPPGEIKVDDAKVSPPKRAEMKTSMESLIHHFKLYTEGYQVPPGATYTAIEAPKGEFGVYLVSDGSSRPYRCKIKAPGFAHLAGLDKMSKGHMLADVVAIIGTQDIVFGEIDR

[4] = molecular target: T4, AEA-DA-modified peptides in Neuro2a cells (Mus musculus, UniProt Q99JB2); conditions: AEA-DA-modified peptide STOML2 Q99JB2 292-322, SEQ ID NO 107; probe 100 μM, 12 replicates
T4 construct: endogenous in cells; host or cells: Neuro2a
T4 sequence (Q99JB2 29-353): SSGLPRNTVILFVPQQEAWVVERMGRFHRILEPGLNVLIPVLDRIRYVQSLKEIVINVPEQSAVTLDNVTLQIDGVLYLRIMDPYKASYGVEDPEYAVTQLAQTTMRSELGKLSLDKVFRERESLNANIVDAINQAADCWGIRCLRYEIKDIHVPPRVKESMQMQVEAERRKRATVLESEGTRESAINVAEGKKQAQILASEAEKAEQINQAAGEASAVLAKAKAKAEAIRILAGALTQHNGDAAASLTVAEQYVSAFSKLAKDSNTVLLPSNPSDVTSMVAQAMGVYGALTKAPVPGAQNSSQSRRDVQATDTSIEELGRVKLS

[5] = molecular target: T5, AEA-DA-modified peptides in Neuro2a cells (Mus musculus, UniProt P61759); conditions: AEA-DA-modified peptide VBP1 P61759 153-178, SEQ ID NO 119; probe 100 μM, 12 replicates
T5 construct: endogenous in cells; host or cells: Neuro2a
T5 sequence (P61759 whole entry): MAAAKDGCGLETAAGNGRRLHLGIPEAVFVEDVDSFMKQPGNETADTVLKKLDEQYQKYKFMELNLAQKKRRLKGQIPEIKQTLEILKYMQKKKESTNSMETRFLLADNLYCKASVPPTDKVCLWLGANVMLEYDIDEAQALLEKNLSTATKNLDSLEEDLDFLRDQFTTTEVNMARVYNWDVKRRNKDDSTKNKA

[6] = molecular target: T6, AEA-DA-modified peptides in Neuro2a cells (Mus musculus, UniProt Q91WC3); conditions: AEA-DA-modified peptide ACSL6 Q91WC3 408-420, SEQ ID NO 3; probe 100 μM, 12 replicates
T6 construct: endogenous in cells; host or cells: Neuro2a
T6 sequence (Q91WC3 whole entry): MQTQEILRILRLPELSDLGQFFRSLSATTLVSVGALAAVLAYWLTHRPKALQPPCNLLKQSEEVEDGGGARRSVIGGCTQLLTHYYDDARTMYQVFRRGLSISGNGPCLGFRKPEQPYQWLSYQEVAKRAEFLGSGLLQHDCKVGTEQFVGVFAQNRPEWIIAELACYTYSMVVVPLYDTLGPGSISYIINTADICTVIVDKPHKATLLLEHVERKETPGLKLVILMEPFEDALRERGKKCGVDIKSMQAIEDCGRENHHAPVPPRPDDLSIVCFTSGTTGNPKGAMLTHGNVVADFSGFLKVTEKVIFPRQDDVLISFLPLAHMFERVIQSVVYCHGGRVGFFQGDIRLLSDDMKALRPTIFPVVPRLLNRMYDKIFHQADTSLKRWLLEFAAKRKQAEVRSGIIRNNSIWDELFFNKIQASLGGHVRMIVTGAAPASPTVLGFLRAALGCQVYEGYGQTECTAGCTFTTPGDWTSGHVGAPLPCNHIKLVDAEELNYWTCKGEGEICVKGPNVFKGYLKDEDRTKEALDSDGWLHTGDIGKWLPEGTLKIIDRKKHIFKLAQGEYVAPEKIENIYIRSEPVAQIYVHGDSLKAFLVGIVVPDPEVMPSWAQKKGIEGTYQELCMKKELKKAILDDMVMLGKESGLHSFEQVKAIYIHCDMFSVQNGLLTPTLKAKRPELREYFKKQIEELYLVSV

[7] = molecular target: T7, AEA-DA-modified peptides in Neuro2a cells (Mus musculus, UniProt Q9D8V0); conditions: AEA-DA-modified peptide HM13 Q9D8V0 62-74, SEQ ID NO 48; probe 100 μM, 12 replicates
T7 construct: endogenous in cells; host or cells: Neuro2a
T7 sequence (Q9D8V0 whole entry): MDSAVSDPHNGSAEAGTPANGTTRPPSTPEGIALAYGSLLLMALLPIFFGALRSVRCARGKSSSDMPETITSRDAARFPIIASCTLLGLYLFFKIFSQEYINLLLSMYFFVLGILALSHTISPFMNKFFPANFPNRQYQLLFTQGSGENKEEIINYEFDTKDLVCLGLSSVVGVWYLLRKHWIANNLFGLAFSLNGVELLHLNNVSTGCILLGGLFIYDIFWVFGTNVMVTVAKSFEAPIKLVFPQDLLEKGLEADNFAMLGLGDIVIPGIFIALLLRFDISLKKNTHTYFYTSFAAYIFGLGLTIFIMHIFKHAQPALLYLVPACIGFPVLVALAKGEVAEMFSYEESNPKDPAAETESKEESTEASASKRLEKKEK

[8] = molecular target: T8, AEA-DA-modified peptides in Neuro2a cells (Mus musculus, UniProt Q8K411); conditions: AEA-DA-modified peptide PITRM1 Q8K411 364-386, SEQ ID NO 87; probe 100 μM, 12 replicates
T8 construct: endogenous in cells; host or cells: Neuro2a
T8 sequence (Q8K411 16-1036): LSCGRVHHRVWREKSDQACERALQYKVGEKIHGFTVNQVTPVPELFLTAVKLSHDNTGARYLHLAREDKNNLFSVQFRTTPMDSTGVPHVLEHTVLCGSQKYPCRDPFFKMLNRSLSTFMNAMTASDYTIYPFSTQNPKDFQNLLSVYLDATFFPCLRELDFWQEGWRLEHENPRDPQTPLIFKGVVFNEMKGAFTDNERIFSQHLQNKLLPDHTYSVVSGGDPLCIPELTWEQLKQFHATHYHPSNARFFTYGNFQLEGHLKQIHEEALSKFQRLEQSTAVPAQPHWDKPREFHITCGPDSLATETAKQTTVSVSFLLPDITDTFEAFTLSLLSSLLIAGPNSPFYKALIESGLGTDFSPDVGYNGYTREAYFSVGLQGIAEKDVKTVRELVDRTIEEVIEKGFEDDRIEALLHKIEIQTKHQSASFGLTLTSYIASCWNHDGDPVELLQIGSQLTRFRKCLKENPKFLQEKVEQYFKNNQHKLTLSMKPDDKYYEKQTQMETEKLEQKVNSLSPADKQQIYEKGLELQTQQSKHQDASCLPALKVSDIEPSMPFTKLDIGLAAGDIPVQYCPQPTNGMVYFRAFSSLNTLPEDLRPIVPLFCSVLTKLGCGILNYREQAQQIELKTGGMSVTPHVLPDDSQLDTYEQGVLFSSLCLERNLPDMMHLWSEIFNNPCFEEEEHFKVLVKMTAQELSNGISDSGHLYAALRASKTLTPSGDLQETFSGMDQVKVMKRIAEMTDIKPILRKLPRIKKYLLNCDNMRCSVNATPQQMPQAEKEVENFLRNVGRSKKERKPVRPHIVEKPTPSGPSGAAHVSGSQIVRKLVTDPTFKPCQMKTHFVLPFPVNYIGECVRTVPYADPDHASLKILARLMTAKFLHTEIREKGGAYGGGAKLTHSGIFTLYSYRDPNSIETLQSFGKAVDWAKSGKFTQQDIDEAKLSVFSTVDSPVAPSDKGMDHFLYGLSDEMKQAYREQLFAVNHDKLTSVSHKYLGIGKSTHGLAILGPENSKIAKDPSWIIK

[9] = molecular target: T9, AEA-DA-modified peptides in Neuro2a cells (Mus musculus, UniProt P59325); conditions: AEA-DA-modified peptide EIF5 P59325 272-287, SEQ ID NO 36; probe 100 μM, 12 replicates
T9 construct: endogenous in cells; host or cells: Neuro2a
T9 sequence (P59325 whole entry): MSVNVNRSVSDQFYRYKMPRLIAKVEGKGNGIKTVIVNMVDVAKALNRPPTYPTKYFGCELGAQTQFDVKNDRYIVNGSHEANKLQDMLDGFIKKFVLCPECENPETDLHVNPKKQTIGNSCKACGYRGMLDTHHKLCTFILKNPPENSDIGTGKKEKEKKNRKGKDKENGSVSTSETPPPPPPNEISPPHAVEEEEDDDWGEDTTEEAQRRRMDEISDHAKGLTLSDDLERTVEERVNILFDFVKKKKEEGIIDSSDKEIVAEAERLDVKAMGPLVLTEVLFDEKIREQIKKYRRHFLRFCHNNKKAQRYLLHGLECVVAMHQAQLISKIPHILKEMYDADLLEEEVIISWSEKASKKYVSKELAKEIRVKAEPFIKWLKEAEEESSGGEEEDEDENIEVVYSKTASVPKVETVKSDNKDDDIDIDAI

[10] = molecular target: T10, AEA-DA-modified peptides in Neuro2a cells (Mus musculus, UniProt Q8BKE6); conditions: AEA-DA-modified peptide CYP20A1 Q8BKE6 397-414, SEQ ID NO 29; probe 100 μM, 12 replicates
T10 construct: endogenous in cells; host or cells: Neuro2a

[11] = molecular target: T11, AEA-DA-modified peptides in Neuro2a cells (Mus musculus, UniProt Q8BMK4); conditions: AEA-DA-modified peptide CKAP4 Q8BMK4 292-307, SEQ ID NO 23; probe 100 μM, 12 replicates
T11 construct: endogenous in cells; host or cells: Neuro2a
T11 sequence (Q8BMK4 whole entry): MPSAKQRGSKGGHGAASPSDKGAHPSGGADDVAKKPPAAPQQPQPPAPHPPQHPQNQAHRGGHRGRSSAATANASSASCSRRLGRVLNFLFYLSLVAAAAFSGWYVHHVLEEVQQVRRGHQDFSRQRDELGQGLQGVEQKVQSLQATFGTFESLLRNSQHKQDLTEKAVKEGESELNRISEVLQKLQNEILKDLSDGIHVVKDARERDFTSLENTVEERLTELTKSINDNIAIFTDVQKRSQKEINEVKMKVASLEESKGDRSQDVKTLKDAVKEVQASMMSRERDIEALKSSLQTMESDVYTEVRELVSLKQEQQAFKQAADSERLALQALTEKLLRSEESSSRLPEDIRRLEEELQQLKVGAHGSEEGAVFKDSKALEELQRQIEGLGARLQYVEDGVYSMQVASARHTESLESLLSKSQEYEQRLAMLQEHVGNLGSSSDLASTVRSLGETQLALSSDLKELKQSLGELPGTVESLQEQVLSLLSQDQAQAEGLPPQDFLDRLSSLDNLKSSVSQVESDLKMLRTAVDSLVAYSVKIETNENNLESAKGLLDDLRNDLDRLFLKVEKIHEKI

[12] = molecular target: T12, AEA-DA-modified peptides in Neuro2a cells (Mus musculus, UniProt P47802); conditions: AEA-DA-modified peptide MTX1 P47802 89-104, SEQ ID NO 63; probe 100 μM, 12 replicates
T12 construct: endogenous in cells; host or cells: Neuro2a
T12 sequence (P47802 whole entry): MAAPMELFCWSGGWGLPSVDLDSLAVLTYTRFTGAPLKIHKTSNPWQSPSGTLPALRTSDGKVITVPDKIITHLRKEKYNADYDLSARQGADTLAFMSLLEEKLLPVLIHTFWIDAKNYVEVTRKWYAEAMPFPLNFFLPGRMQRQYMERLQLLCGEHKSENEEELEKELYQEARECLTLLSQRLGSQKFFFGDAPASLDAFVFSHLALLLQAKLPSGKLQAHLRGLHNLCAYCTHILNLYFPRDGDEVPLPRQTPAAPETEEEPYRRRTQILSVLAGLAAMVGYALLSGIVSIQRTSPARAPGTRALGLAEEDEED

`C#CCCCC1(CC/C=C\C/C=C\C/C=C\CCCC(=O)NCCO)N=N1` [AEA-DA, (5Z,8Z,11Z)-N-(2-hydroxyethyl)-14-(3-(pent-4-yn-1-yl)-3H-diazirin-3-yl)tetradeca-5,8,11-trienamide] showed a Times observed [1] of 2, a Times observed [2] of 3 and a Times observed [3] of 3. For the same molecule, the Times observed [4] was 2, the Times observed [5] was 2 and the Times observed [6] was 6. The Times observed [7] was 12, the Times observed [8] was 2 and the Times observed [9] was 12. It also gave a Times observed [10] of 8, a Times observed [11] of 7 and a Times observed [12] of 2.
